Results taken from patent publication US9896440B2, “Aryl substituted heterocyclyl sulfones” (GRÜNENTHAL GMBH, priority 2014, dated 2018).

Each molecule was assayed against T1, Human CaV2.2 channels (Homo sapiens, UniProt Q00975) (assay: Fluorescence assay for CaV2.2 channels using potassium depolarization to induce channel opening (FLIPR, Fluo 4)). Conditions: 3 μM test compound, 30 mM KCl assay buffer (inactivated channel state), HEK293 cells.
T1 construct: expressed in transfected cells; Kir2.3 also stably co-expressed
T1 sequence (Q00975 whole entry): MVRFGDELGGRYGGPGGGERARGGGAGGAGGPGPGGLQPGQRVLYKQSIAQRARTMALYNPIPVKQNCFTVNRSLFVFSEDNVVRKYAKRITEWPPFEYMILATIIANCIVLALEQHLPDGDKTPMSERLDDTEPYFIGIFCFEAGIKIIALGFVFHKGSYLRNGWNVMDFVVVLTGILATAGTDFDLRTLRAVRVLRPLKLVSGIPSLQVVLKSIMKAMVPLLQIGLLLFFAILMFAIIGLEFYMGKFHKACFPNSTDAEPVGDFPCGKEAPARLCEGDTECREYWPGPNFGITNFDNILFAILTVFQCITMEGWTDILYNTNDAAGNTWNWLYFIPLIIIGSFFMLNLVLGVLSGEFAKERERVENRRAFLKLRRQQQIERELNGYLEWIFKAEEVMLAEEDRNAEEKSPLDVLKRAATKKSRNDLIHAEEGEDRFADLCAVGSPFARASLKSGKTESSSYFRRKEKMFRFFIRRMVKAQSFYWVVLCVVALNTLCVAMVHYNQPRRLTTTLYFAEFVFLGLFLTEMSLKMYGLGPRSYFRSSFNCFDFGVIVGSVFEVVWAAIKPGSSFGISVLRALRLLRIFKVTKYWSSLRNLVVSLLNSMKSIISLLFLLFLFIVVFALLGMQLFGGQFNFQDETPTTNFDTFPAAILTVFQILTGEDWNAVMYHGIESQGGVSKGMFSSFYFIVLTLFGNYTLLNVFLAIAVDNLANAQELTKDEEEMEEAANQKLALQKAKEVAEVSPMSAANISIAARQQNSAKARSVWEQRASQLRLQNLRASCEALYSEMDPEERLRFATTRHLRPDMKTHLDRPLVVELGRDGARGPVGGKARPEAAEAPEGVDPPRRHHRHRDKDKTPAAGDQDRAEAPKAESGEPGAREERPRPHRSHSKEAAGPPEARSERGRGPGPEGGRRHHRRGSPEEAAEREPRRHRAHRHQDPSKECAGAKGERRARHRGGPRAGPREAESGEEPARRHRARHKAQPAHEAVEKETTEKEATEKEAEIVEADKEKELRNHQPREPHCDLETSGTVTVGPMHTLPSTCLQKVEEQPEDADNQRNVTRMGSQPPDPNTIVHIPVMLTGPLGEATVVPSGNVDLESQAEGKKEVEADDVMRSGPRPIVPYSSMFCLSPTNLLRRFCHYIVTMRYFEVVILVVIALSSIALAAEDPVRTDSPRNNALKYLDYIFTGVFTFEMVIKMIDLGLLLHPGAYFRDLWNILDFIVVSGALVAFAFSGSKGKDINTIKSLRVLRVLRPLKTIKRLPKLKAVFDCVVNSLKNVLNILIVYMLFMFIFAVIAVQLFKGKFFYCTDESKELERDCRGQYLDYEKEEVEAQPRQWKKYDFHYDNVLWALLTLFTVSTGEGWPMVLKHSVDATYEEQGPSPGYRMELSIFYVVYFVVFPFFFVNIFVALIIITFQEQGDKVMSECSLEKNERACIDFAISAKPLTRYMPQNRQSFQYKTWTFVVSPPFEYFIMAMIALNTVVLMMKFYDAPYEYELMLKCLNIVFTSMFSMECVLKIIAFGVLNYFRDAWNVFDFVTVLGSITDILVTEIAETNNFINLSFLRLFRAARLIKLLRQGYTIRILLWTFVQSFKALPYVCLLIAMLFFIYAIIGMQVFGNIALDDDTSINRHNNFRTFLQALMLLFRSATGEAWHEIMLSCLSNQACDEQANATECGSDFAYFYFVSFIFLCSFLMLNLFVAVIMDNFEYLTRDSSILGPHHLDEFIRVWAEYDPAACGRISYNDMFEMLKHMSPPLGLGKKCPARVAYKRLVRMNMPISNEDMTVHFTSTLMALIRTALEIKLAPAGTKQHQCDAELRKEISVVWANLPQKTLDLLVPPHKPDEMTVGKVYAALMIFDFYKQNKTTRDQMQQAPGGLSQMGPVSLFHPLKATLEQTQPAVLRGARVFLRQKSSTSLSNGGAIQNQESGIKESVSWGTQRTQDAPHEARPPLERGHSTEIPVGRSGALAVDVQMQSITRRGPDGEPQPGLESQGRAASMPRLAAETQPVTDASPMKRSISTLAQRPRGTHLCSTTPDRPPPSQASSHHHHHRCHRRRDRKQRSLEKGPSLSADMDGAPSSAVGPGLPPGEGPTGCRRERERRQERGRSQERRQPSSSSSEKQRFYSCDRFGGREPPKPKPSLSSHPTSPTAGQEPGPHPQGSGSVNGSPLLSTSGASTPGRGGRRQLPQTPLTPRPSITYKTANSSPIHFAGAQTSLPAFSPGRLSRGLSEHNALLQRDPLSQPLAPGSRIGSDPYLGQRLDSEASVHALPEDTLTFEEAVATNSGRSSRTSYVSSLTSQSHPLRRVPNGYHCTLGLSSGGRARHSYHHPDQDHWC
Format: cell-based
Description: In the process, the Ca^2+ influx is quantified in the FLIPR assay with the aid of a Ca^2+-sensitive dye (type Fluo-4, Molecular Probes Europe BV, Leiden, the Netherlands) in a fluorescent imaging plate reader (FLIPR 3, Molecular Devices, Sunnyvale, USA), as described hereinafter.
Human CaV2.2 channels were stably expressed in HEK293 cells together with alpha2-delta and beta subunits of voltage gated calcium channels. In addition, an inwardly rectifying potassium channel (Kir2.3) was stably expressed in these cells to augment control of the cell membrane potential by the concentration of extracellular potassium ions. Raise of the extracellular potassium concentration leads to depolarization of the membrane potential and thus regulates the voltage dependent state of CaV2.2 channels. For preparation, cells were seeded in black poly-D-lysine coated 96-well plates (Becton Dickinson, Biocoat 4640) in 100 μL medium [500 mL DMEM/F-12 plus Glutamax (Invitrogen 31331-093) plus 5.5 mL MEM NEAA 100× (Invitrogen 11140-035) plus 50 mL FBS decomplemented (Invitrogen 10270-106) plus 200 μg/mL Geneticin (Invitrogen 10131-027) plus 50 μg/mL Hygromycin B (Invitrogen 10687-010) plus 2 μg/mL Blasticidin (anti-bl5b Invivo-Gen) plus 0.2 μg/mL Puromycin (A 11138-03)] at a cell density of 30.000 cells per well. Plates were incubated at 37° C. (5% CO2) for 20 to 23 h. On the day of experiment medium was discarded and cells were loaded with Fluo 4 by addition of 100 μL of basic assay buffer (10 mM HEPES, 1 mM KCl, 149 mM NaCl, 0.8 mM CaCl2, 1.7 mM MgCl2, 10 mM Glucose, 0.1% BSA. pH 7.4) containing 2 μM Fluo 4 (Molecular Probes; F-14201), 0.01% pluronic acid (Molecular Probes; P-6866) and 2.5 mM probenecid (Molecular Probes; P36400). Cells were incubated in the dark at 25° C. for 60 min. Then dye containing buffer was discarded and 100 μL basic (1 mM KCl) or alternative (30 mM KCl) assay buffer was added. The alternative assay buffer contained altered concentrations of KCl (30 mM) and NaCl (120 mM) and was used in order to promote the inactivated channel state. After that 25 μL of basic or alternative assay buffer with or without test compound were added and cells were incubated again in the dark at 25° C. for 15 min. Fluorescence intensity was measured on a FLIPR 3 instrument (Molecular Devices Corp., Sunnyvale, Calif.) with excitation at 480 nm and emission at 535 nm. After continuously reading fluorescence for 30 sec, 50 μL of basic assay buffer containing 210 mM KCl (NaCl omitted) were added for depolarization. Peak fluorescent signal intensity was determined and the amplitude of the peak signal, normalized to base line, was used to measure channel inhibition by test compounds.

Row | Structure (SMILES) | Activity Category: %-Inhib (CaV2.2) @3 μM @30 mM KCl
1 | CC1(S(=O)(=O)c2cccc(C(F)(F)F)c2)CCOC(c2ccc(S(C)(=O)=O)c(F)c2)C1 (stereo not drawn) [SC-209, 2-(3-Fluoro-4-methylsulfonyl-phenyl)-4-methyl-4-[[3-(trifluoromethyl)phenyl]sulfonyl]-tetrahydro-pyran] | B (%-Inhibition >75% up to ≦95%)
2 | CC1(S(=O)(=O)c2cccc(C(F)(F)F)c2)CCOC(c2ccc(F)c(S(C)(=O)=O)c2)C1 (stereo not drawn) [SC-213, 2-(4-Fluoro-3-methylsulfonyl-phenyl)-4-methyl-4-[[3-(trifluoromethyl)phenyl]sulfonyl]-tetrahydro-pyran] | B (%-Inhibition >75% up to ≦95%)
3 | CN(C)CC1(S(=O)(=O)c2cccc(C(F)(F)F)c2)CCOC(c2ccc(Cl)cc2)C1 (stereo not drawn) [SC-214, [[2-(4-Chlorophenyl)-4-[[3-(trifluoromethyl)phenyl]sulfonyl]-tetrahydro-pyran-4-yl]-methyl]-dimethyl-amine] | A (%-Inhibition >95%)
4 | CN(C)CC1(S(=O)(=O)c2cccc(C(F)(F)F)c2)CCOC(c2ccc(Cl)cc2)C1 (stereo not drawn) [SC-215, [[2-(4-Chlorophenyl)-4-[[3-(trifluoromethyl)phenyl]sulfonyl]-tetrahydro-pyran-4-yl]-methyl]-dimethyl-amine] | C (%-Inhibition >40% up to ≦75%)
5 | COCC1(S(=O)(=O)c2cccc(C(F)(F)F)c2)CCOC(c2ccc(Cl)cc2)C1 (stereo not drawn) [SC-216, 2-(4-Chlorophenyl)-4-(methoxymethyl)-4-[[3-(trifluoromethyl)phenyl]sulfonyl]-tetrahydro-pyran] | B (%-Inhibition >75% up to ≦95%)
6 | COCC1(S(=O)(=O)c2cccc(C(F)(F)F)c2)CCOC(c2ccc(Cl)cc2)C1 (stereo not drawn) [SC-217, 2-(4-Chlorophenyl)-4-(methoxymethyl)-4-[[3-(trifluoromethyl)phenyl]sulfonyl]-tetrahydro-pyran] | C (%-Inhibition >40% up to ≦75%)
7 | CC1(S(=O)(=O)c2cccc(C(F)(F)F)c2)CCOC(c2ccccc2S(C)(=O)=O)C1 (stereo not drawn) [SC-222, 4-Methyl-2-(2-methylsulfonyl-phenyl)-4-[[3-(trifluoromethyl)phenyl]sulfonyl]-tetrahydro-pyran] | A (%-Inhibition >95%)
8 | CC1(S(=O)(=O)c2cccc(C(F)(F)F)c2)CCOC(c2ccccc2S(C)(=O)=O)C1 (stereo not drawn) [SC-223, 4-Methyl-2-(2-methylsulfonyl-phenyl)-4-[[3-(trifluoromethyl)phenyl]sulfonyl]-tetrahydro-pyran] | C (%-Inhibition >40% up to ≦75%)
9 | Cc1cc(Cl)ccc1C1CC(C)(S(=O)(=O)c2cccc(C(F)(F)F)c2)CCO1 (stereo not drawn) [SC-225, 2-(4-Chloro-2-methyl-phenyl)-4-methyl-4-[[3-(trifluoromethyl)phenyl]sulfonyl]-tetrahydro-pyran] | A (%-Inhibition >95%)
10 | CCC1(S(=O)(=O)c2cccc(C(F)(F)F)c2)CCOC(c2ccc(Cl)cc2)C1 (stereo not drawn) [SC-231, 2-(4-Chlorophenyl)-4-ethyl-4-[[3-(trifluoromethyl)phenyl]sulfonyl]-tetrahydro-pyran] | B (%-Inhibition >75% up to ≦95%)

Same assay, conditions: HEK293, 3 μM test compound, 30 mM KCl assay buffer (inactivated channel state), HEK293 cells; read-out: Activity Category: %-Inhib (CaV2.2) @3 μM @30 mM KCl

Row | Structure (SMILES) | inhibition at 3 µM [%]
11 | Cc1ccc(C2CC(C)(S(=O)(=O)c3cccc(C(F)(F)F)c3)CCO2)cc1S(C)(=O)=O (stereo not drawn) [SC-210, 4-Methyl-2-(4-methyl-3-methylsulfonyl-phenyl)-4-[[3-(trifluoromethyl)phenyl]sulfonyl]-tetrahydro-pyran] | > 95
12 | CC1(S(=O)(=O)c2cccc(C(F)(F)F)c2)CCOC(c2ccc(F)c(S(C)(=O)=O)c2)C1 (stereo not drawn) [SC-212, 2-(4-Fluoro-3-methylsulfonyl-phenyl)-4-methyl-4-[[3-(trifluoromethyl)phenyl]sulfonyl]-tetrahydro-pyran] | > 95
13 | CC1(S(=O)(=O)c2cccc(C(F)(F)F)c2)CCOC(c2ccc(S(C)(=O)=O)cc2Cl)C1 (stereo not drawn) [SC-218, 2-(2-Chloro-4-methylsulfonyl-phenyl)-4-methyl-4-[[3-(trifluoromethyl)phenyl]sulfonyl]-tetrahydro-pyran] | > 95
14 | CC1(S(=O)(=O)c2cccc(C(F)(F)F)c2)CCOC(c2cccc(S(C)(=O)=O)c2)C1 (stereo not drawn) [SC-220, 4-Methyl-2-(3-methylsulfonyl-phenyl)-4-[[3-(trifluoromethyl)phenyl]sulfonyl]-tetrahydro-pyran] | 75 to 95
15 | Cc1cc(Cl)ccc1C1CC(C)(S(=O)(=O)c2cccc(C(F)(F)F)c2)CCO1 (stereo not drawn) [SC-224, 2-(4-Chloro-2-methyl-phenyl)-4-methyl-4-[[3-(trifluoromethyl)phenyl]sulfonyl]-tetrahydro-pyran] | 75 to 95
16 | COc1cc(C2CC(C)(S(=O)(=O)c3cccc(C(F)(F)F)c3)CCO2)ccc1Cl (stereo not drawn) [SC-226, 2-(4-Chloro-3-methoxy-phenyl)-4-methyl-4-[[3-(trifluoromethyl)phenyl]sulfonyl]-tetrahydro-pyran] | > 95
17 | CC1(S(=O)(=O)c2cccc(C(F)(F)F)c2)CCOC(c2ccc(F)c(Cl)c2)C1 (stereo not drawn) [SC-228, 2-(3-Chloro-4-fluoro-phenyl)-4-methyl-4-[[3-(trifluoromethyl)phenyl]sulfonyl]-tetrahydro-pyran] | > 95
18 | CCC1(S(=O)(=O)c2cccc(C(F)(F)F)c2)CCOC(c2ccc(Cl)cc2)C1 (stereo not drawn) [SC-230, 2-(4-Chlorophenyl)-4-ethyl-4-[[3-(trifluoromethyl)phenyl]sulfonyl]-tetrahydro-pyran] | > 95
19 | CC1(S(=O)(=O)c2cccc(C(F)(F)F)c2)CCOC(c2ccc(C(F)(F)F)cc2S(C)(=O)=O)C1 (stereo not drawn) [SC-232, 4-Methyl-2-[2-methylsulfonyl-4-(trifluoromethyl)-phenyl]-4-[[3-(trifluoromethyl)phenyl]sulfonyl]-tetrahydro-pyran] | > 95
20 | CC1(S(=O)(=O)c2cccc(C(F)(F)F)c2)CCOC(c2ccc(S(C)(=O)=O)c(C(F)(F)F)c2)C1 (stereo not drawn) [SC-235, 4-Methyl-2-[4-methylsulfonyl-3-(trifluoromethyl)-phenyl]-4-[[3-(trifluoromethyl)phenyl]sulfonyl]-tetrahydro-pyran] | > 95
21 | CC1(S(=O)(=O)c2cccc(C(F)(F)F)c2)CCOC(c2ccc(Cl)c(S(C)(=O)=O)c2)C1 (stereo not drawn) [SC-237, 2-(4-Chloro-3-methylsulfonyl-phenyl)-4-methyl-4-[[3-(trifluoromethyl)phenyl]sulfonyl]-tetrahydro-pyran] | > 95
22 | CC1(S(=O)(=O)c2cccc(C(F)(F)F)c2)CCOC(c2ccc(S(C)(=O)=O)c(Cl)c2)C1 (stereo not drawn) [SC-239, 2-(3-Chloro-4-methylsulfonyl-phenyl)-4-methyl-4-[[3-(trifluoromethyl)phenyl]sulfonyl]-tetrahydro-pyran] | > 95
23 | CC1(S(=O)(=O)c2cccc(C(F)(F)F)c2)CCOC(c2ccc(S(C)(=O)=O)cc2F)C1 (stereo not drawn) [SC-241, 2-(2-Fluoro-4-methylsulfonyl-phenyl)-4-methyl-4-[[3-(trifluoromethyl)phenyl]sulfonyl]-tetrahydro-pyran] | > 95
24 | CC1(S(=O)(=O)c2cccc(C(F)(F)F)c2)CCOC(c2cc(Cl)cc(S(C)(=O)=O)c2)C1 (stereo not drawn) [SC-243, 2-(3-Chloro-5-methylsulfonyl-phenyl)-4-methyl-4-[[3-(trifluoromethyl)phenyl]sulfonyl]-tetrahydro-pyran] | > 95
25 | CC1(S(=O)(=O)c2cccc(C(F)(F)F)n2)CCOC(c2ccc(S(C)(=O)=O)c(F)c2)C1 (stereo not drawn) [SC-245, 2-[[2-(3-Fluoro-4-methylsulfonyl-phenyl)-4-methyl-tetrahydro-pyran-4-yl]sulfonyl]-6-(trifluoromethyl)-pyridine] | 40 to 75
26 | CC1(S(=O)(=O)c2cccc(C(F)(F)F)c2)CCOC(c2cc(S(C)(=O)=O)ccc2Cl)C1 (stereo not drawn) [SC-247, 2-(2-Chloro-5-methylsulfonyl-phenyl)-4-methyl-4-[[3-(trifluoromethyl)phenyl]sulfonyl]-tetrahydro-pyran] | > 95
27 | CC1(S(=O)(=O)c2cccc(C(F)(F)F)c2)CCOC(c2ccc(C(F)(F)F)c(S(C)(=O)=O)c2)C1 (stereo not drawn) [SC-249, 4-Methyl-2-[3-methylsulfonyl-4-(trifluoromethyl)-phenyl]-4-[[3-(trifluoromethyl)phenyl]sulfonyl]-tetrahydro-pyran] | > 95
